From patent US20050020550A1, “Selective testicular 11beta-HSD inhibitors and methods of use thereof” (priority 2003, published 2005)

Legend:
[1] = tested on: rat aortic rings; test: Contractile response of rat aortic rings to phenylephrine; conditions: for contractile response to phenylephrine: rings incubated 24 hours with corticosterone (10 nmol/L) and antisense oligomers (3 μmol/L)
Procedure: Male Sprague-Dawley (150-200 g) rats were anesthetized with pentobarbital (50 mg/kg IP), and a median sternotomy was performed followed by the rapid removal of the thoracic aorta. The adventitia was removed, but the endothelium was left intact. The aorta was cut into 2-3 mm rings and individual rings were placed into a single well of a twenty four well culture plate and incubated at 37° C. under 95% O2-5% CO2. Each well contained 1 mL of DMEM/F12 containing 1% fetal bovine serum, streptomycin (100 μg/ml), penicillin (100 units/ml) and amphotericin (0.25 μg/ml). Aortic rings were incubated for 24 hours prior to contractility measurements with the following combinations of steroids, and antisense/nonsense oligonucleotides (3 μmol/L): • Corticosterone (10 nmol/L)+11β-HSD2 antisense or 11β-HSD2 nonsense oligomer • Corticosterone (10 nmol/L)+11β-HSD1 antisense or 11β-HSD1 nonsense oligomer • In 11-dehydrocorticosterone experiments with vehicle alone • 11-dehydrocorticosterone (100 nmol/L)+11β-HSD1 Antisense or 11β-HSD1 nonsense oligomer
Antisense phosphorothioate oligonucleotides, targeted to block either 11β-HSD2 or 11β-HSD1 gene expression, were obtained from Research Genetics, Huntsville Ala. Antisense oligomers complementary to 20 bp sequences spanning the ribosome binding/translation start site were used. Oligomer sequences were: 5′-CATAACTGCCGTCCAACAGC-3′ (SEQ ID No.: 2) for 11β-HSD1 Antisense and 5′-AGCCCAGCGCTCCATGACTT-3′ (SEQ ID No. 3) for 11β-HSD2 antisense. In control experiments the corresponding sense sequence was used as the nonsense oligomer. Antisense and nonsense oligomers were added directly to each well at 20 μg/10:1 sterile H2O per well for a final concentration of 3 μmol/L.
For contraction measurements, aortic rings were suspended by tungsten wires with 1 g of tension and placed in a vessel bath containing serum free DMEM/F 12 media at 37° C. aerated with 95% O2-5% CO2, at pH 7.4. Vessels were equilibrated for 20 minutes and then tested with phenylephrine (1 nmol/L−10 μmol/L). Although phenylephrine is structurally not a catecholamine, it is considered to be a functional catecholamine as it activates […]. Due to its favorable stability characteristics, it is widely used as a catecholamine substitute in experiments of this nature. The intensity of contraction was assessed by use of a Narishige micromanipulator and model FT03 force transducer (Grass Instrument Co. West Warwick, R.I.). Measurements were recorded on computer using the Labview 4.1 Virtual Instrument System (National Instruments, Austin, Tex.).

[2] = tested on: 11β-HSD1-reductase activity; test: Conversion of 3H-11-dehydrocorticosterone back to corticosterone by aortic rings; design: species or system rat
Procedure: (§1) The effects of 11β-HSD1 and 11β-HSD2 antisense on the inter-conversion of ^3H-corticosterone and ^3H-11-dehydro-corticosterone by aortic rings was also determined. Rings (2-3 mm) obtained in a similar manner as those in the contraction studies, were incubated in 1 ml DMEM/F12 media containing 1% FBS at 37° C. under 95% O2-5% CO2 in 24-well culture plates. Rings were incubated for 24 hours with: • (i) ^3H-corticosterone (10 mmol/L)±11β-HSD2 or 11β-HSD1 antisense (3 μmol/L); control groups received nonsense oligomers. The amount of ^3H-11-dehydro-corticqsterone in the incubation medium after 24 hrs was then measured. The effects of 11β-HSD1 antisense/nonsense were measured in quadruplicate (n=6 aortic rings per well) and the effects of 11β-HSD2 antisense/nonsense in duplicate (n=8 aortic rings per well), • (ii) ^3H-11-dehydro-corticosterone (10 nmol/L)±11β-HSD1 antisense (3 μmol/L); this experiment was performed in duplicate (n=10 aortic rings per well). Control groups were incubated with the appropriate nonsense oligomer. ^3H-corticosterone in the incubation medium after 24 hrs was then measured. In this experiment, aortic rings were also analyzed for ^3H-corticosterone content. Rings from duplicate incubations (total n=20) were blotted dry, pooled and homogenized in 50% methanol using a Polytron. The homogenates were then centrifuged, extracted as below using Sep-Paks and injected onto a HPLC system for analysis.
(§2) Incubation media was collected, ran through a Sep-Pak and eluted with 3 mls of methanol, the eluate was then dried under nitrogen and reconstituted in 500:1 methanol. […] Steroids were observed by monitoring radioactivity on-line with a Packard Radiomatic Flo-One/Beta Series A-500 counter connected to a Dell Optiflex 425 S/L computer. […]
Corticosterone and phenylephrine were obtained from Sigma (St Louis, Mo.), 11-dehydrocorticosterone from Research Plus (Bayonne, N.J.) and ^3H-steroids from New England Nuclear (Boston, Mass.). Where appropriate, data were expressed as mean±SE and analyzed using ANOVA and the Student's t test with Bonferroni modification. […]

[3] = tested on: 11β-HSD enzyme activity; test: Conversion of 3H-corticosterone to 11-dehydrocorticosterone by aortic rings; design: species or system rat; conditions: 24 hrs, 3H-corticosterone (10 nM) plus antisense (3 μM), compared to nonsense oligomers
Procedure: as §1, with “Rings were incubated for 24 hours with: • (i) ^3H-corticosterone (10 mmol/L)±11β-HSD2 or 11β-HSD1 antisense (3 μmol/L); control groups received nonsense oligomers.” left out, “Rings from duplicate incubations (total n=20) were blotted dry, pooled and homogenized in 50% methanol using a Polytron. The homogenates were then centrifuged, extracted as below using Sep-Paks and injected onto a HPLC system for analysis.” left out
as §2

[4] = target: T1, 11β-HSD1 Dehydrogenase (Rattus norvegicus, UniProt P16232); test: Inhibition of 11β-HSD1 dehydrogenase (Table 1); format: cell-based
T1 construct: an enzyme present in testicular Leydig cells; endogenous in cells; host or cells: freshly prepared rat Leydig cells

[5] = target: T2, 11β-HSD1 Reductase (Rattus norvegicus, UniProt P16232); test: Inhibition of 11β-HSD1 reductase (Table 1); format: cell-based
T2 construct: an enzyme present in testicular Leydig cells; endogenous in cells; host or cells: freshly prepared rat Leydig cells

[6] = target: T3, 11β-HSD2 Dehydrogenase (Homo sapiens, UniProt P80365); test: Inhibition of 11β-HSD2 dehydrogenase (Table 1); format: biochemical
T3 sequence (P80365 1-405): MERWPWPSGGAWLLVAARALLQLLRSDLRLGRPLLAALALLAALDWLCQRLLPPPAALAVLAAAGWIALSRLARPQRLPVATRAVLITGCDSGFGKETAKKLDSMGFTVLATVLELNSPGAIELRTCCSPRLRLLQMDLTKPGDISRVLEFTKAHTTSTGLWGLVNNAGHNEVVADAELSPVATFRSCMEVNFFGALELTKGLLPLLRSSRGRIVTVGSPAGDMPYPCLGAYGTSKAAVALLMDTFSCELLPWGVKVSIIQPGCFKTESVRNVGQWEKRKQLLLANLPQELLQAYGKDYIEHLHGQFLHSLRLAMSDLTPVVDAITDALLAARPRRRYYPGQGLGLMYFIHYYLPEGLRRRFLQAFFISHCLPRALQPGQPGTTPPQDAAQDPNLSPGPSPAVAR

[7] = with the 11β-HSD1-reductase inhibitor steroid

T2 sequence (P16232 whole entry): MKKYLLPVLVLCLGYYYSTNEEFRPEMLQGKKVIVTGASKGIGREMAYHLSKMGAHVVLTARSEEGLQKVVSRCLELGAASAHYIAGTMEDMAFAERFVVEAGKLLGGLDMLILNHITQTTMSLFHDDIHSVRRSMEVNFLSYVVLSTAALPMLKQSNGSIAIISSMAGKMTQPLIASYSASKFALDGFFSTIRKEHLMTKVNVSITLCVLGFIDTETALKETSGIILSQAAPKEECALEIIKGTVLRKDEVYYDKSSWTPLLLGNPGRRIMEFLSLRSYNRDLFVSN
T1 sequence (P16232 whole entry): as above

Compound | ability of 11-dehydro-corticosterone to amplify the contractile response to phenylephrine ([1]; rings incubated 24 hours with 11-dehydro-corticosterone (100 nmol/L) and antisense (3 μmol/L), compared to nonsense oligomers) | contractile response to phenylephrine ([1]; compared to nonsense oligomers) | production of 3H-corticosterone from 3H-11-dehydrocorticosterone ([2]; incubation medium, 24 hours, antisense compared to nonsense oligomers) | production of 3H-corticosterone in aortic ring tissue ([2]; pooled aortic ring tissue (n=20), antisense compared to nonsense oligomers) | reduction in the conversion of corticosterone to 11-dehydrocorticosterone [3] [%] | 11β-HSD1 Dehydrogenase (inhibition) [4] | ability of 11-dehydro-corticosterone to amplify the contractile effects of phenylephrine [1, 7] | 11β-HSD1 Reductase (inhibition) [5] | metabolism of 11-dehydro-corticosterone back to corticosterone [2, 7] | 11β-HSD2 Dehydrogenase (inhibition) [6]
11β-HSD1 antisense: Antisense phosphorothioate oligonucleotide blocking 11β-HSD1 gene expression, 5′-CATAACTGCCGTCCAACAGC-3′ (antisense CATAACTGCCGTCCAACAGC; all phosphorothioate, sugars by position and methylation of C not given here; listed as Homo sapiens) | attenuated | significantly increased | markedly reduced | markedly lower | 21 | – | – | – | – | –
11β-HSD2 antisense: Antisense phosphorothioate oligonucleotide blocking 11β-HSD2 gene expression, 5′-AGCCCAGCGCTCCATGACTT-3′ (antisense AGCCCAGCGCTCCATGACTT; all phosphorothioate, sugars by position and methylation of C not given here; listed as Homo sapiens) | – | statistically significant increase | – | – | 24 | – | – | – | – | –
CC(=O)[C@H]1CC[C@@H]2[C@@H]3CCC4=CC(=O)CC[C@]4(C)[C@@H]3C(=O)C[C@]12C [11-Keto-progesterone] | – | – | – | – | – | No Inhibition | diminished | Selective Inhibitor | decreased | Potent Inhibitor
